The subject of one assay is HIV-2. Description: Infection of human PBLs. The format is cell-based. The conditions noted are these: MBPC 10^-5 M. As to the method: Peripheral blood lymphocytes (PBLs) were obtained from healthy donors, stimulated with phytohemagglutinin, and cultivated in RPMI 1640 containing 10% fetal calf serum and interleukin-2 (complete medium). Samples of 6×10^6 cells/ml were either treated or not treated with the indicated MBPC at a concentration of 10^-5 M and exposed to HIV-1 or HIV-2 (100 TCID50) for 1 hour at 37° C. in the continued presence of MBPCs. After thorough washing, PBLs were cultured in complete medium with 10^-5 M of the corresponding MBPC. The state of infection was assessed by determination of RT activity (for both HIV-1 and HIV-2 isolates) and HIV-1 p24^gag measurements (Coulter kit, cut-off 10 pg/ml) in the case of HIV-1 isolates 10 days post-infection. The MBPC treatment used were as follows: 1-none; 2- [GPGRAF]8 -MLC; 3-[[…]]4 -MLC; 4- [[…]]4 -MLC (a non-HIV related MBPC) (MLC indicates a core lysine structure). The results shown in FIGS. 2A-2C are representative of three separate experiments. The nature of the viral isolates used was checked by PCR (HIV-1 versus HIV-2 isolates) and RIPA for discriminating between HIV-1 (LAI) and HIV-1 (NDK).

In assay [1] the test system is Peripheral blood lymphocytes (PBL). Description: PBL antigen and mitogen induced proliferation ([3H]thymidine incorporation). In kind it is cell-based, human. The conditions noted are these: MBPCs 5×10^-6 M. As to the method:
Peripheral blood lymphocytes (PBL) from 3 healthy HIV sero-negative donors were isolated from heparinized blood by the Ficoll-Hypaque technique. The culture medium was RPMI 1640 supplemented with 1% glutamine, 1% antibiotics and 10% heat inactivated fetal calf serum. Cells (10^5) were incubated in the presence of MBPCs (5×10^-6 M) with or without antigen (candidine, PPD) or mitogen (PHA). Antigen or mitogen treated cells were pulsed for eight hours with […] of [3H] thymidine. Then cells were harvested and [3H] thymidine incorporation in DNA was counted. […]
In general terms: Dividing cells build labelled thymidine or BrdU into new DNA.

We go through one substance from US5622933A, “Multiple branch peptide constructions for use against HIV” (priority 1993, dated 1997).

Ends that are not written are not given here.

Turning to “(RKSIHIGPGRAFYT)4 -(K)2 -K-βA-OH (also: four copies on lysine core (K)2-K-βA-OH) [MBPC.5, tetradecapeptide MBPC]”, in the assay on HIV-2, the “potency for inhibition of HIV-2 infection, in words” value was “less potent than [GPGRAF]8 -MLC”. In addition, the “[3H] Thymidine Incorporation” value is listed as 80000 cpm in assay [1] (Donor 1, Cand1); 85000 cpm in assay [1] (Donor 1, Cand2); 1300 cpm in assay [1] (Donor 1, PPD1); 2100 cpm in assay [1] (Donor 1, PPD2); 15000 cpm in assay [1] (Donor 2, Cand1); 9000 cpm in assay [1] (Donor 2, Cand2). Besides, the “[3H] Thymidine Incorporation” value was 115000 cpm in assay [1] (Donor 2, PHA1); 111000 cpm in assay [1] (Donor 2, PHA2); 24000 cpm in assay [1] (Donor 2, PPD1); 26000 cpm in assay [1] (Donor 2, PPD2); 3700 cpm in assay [1] (Donor 3, Cand1); 1100 cpm in assay [1] (Donor 3, Cand2). For the same substance, the “[3H] Thymidine Incorporation” value in assay [1] (Donor 3, PHA1) turned out to be 228000 cpm; in assay [1] (Donor 3, PHA2), 188000 cpm; in assay [1] (Donor 3, PPD1) it was 4000 cpm; in assay [1] (Donor 3, PPD2), 2400 cpm.
